Data as given in ChEMBL document CHEMBL1131861, “Antitumor agents 200. Cytotoxicity of naturally occurring resveratrol oligomers and their acetate derivatives” (1999).
≈ marks a conversion by molar mass, not a printed value. Calls of active or inactive are those of the source. No cut-off for these calls is given here.

Experiments:
MCF7 [1] = assay: Cytotoxicity against human breast cancer(MCF-7) cell lines.; format: functional; conditions: read-out: ED50 (the source's name)
CAKI-1 [2] = assay: Cytotoxicity against human renal cancer(CAKI-1) cell lines; […]; format: functional, cell-based
KB [3] = assay: Cytotoxicity against human epidermoid carcinoma of the nasopharynx(KB) cell lines.; format: functional; conditions: read-out: ED50 (the source's name)
A549 [4] = assay: Cytotoxicity against human lung carcinoma (A549) cell lines; format: functional; conditions: read-out: ED50 (the source's name)
1A9 [5] = assay: Cytotoxicity against human ovarian cancer (1A9) cell lines.; format: functional; conditions: read-out: ED50 (the source's name)
SAOS-2 [6] = assay: Cytotoxicity against human osteosarcoma (SaOS-2) cell lines.; format: functional; conditions: read-out: ED50 (the source's name)
SAOS-2 [7] = assay: Percentage inhibition of human osteosarcoma (SaOS-2) cell lines.; format: functional
HCT-8 [8] = assay: Cytotoxicity against human ileocecal carcinoma (HCT-8) cell lines.; format: functional; conditions: read-out: ED50 (the source's name)
CAKI-1 [9] = assay: Cytotoxicity against human renal cancer(CAKI-1) cell lines; format: functional; conditions: read-out: ED50 (the source's name)
A549 [10] = assay: Cytotoxicity against human lung carcinoma (A549) cell lines; Not active; format: functional, cell-based
MCF7 [11] = assay: Percentage inhibition of human breast cancer(MCF-7) cell lines.; format: functional
HCT-8 [12] = assay: Percentage inhibition human ileocecal carcinoma (HCT-8) cell lines.; format: functional
CAKI-1 [13] = assay: Percentage inhibition of human renal cancer(CAKI-1) cell lines; format: functional
A549 [14] = assay: Percentage inhibition of human lung carcinoma (A549) cell lines; format: functional
1A9 [15] = assay: Percentage inhibition of human ovarian cancer (1A9) cell lines.; format: functional
KB [16] = assay: Percentage inhibition of human epidermoid carcinoma of the nasopharynx(KB) cell lines.; format: functional

Row | Compound | EC50 (MCF7 [1]) [µg/mL] | ED50 (CAKI-1 [2]) | EC50 (KB [3]) [µg/mL] | EC50 (A549 [4]) [µg/mL] | EC50 (1A9 [5]) [µg/mL] | EC50 (SAOS-2 [6]) [µg/mL] | Inhibition (SAOS-2 [7]) [%] | EC50 (HCT-8 [8]) [µg/mL] | EC50 (CAKI-1 [9]) [µg/mL] | ED50 (A549 [10]) | Inhibition (MCF7 [11]) [%] | Inhibition (HCT-8 [12]) [%] | Inhibition (CAKI-1 [13]) [%] | Inhibition (A549 [14]) [%] | Inhibition (1A9 [15]) [%] | Inhibition (KB [16]) [%]
1 | CC(=O)Oc1ccc(/C=C/c2cc(OC(C)=O)cc3c2[C@H](c2cc(OC(C)=O)cc(OC(C)=O)c2)[C@@H](c2ccc(OC(C)=O)cc2)O3)cc1 | 4 (≈ 6.02 µM) | inactive | 7.5 (≈ 11.3 µM) | 20 (≈ 30.1 µM) | 5.8 (≈ 8.73 µM) | 7.5 (≈ 11.3 µM) |  |  |  |  |  |  |  |  |  | 
2 | Oc1ccc([C@@H]2c3c(O)cc(O)cc3[C@@H]3c4c(cc(O)cc4[C@H]2[C@@H]2c4cc(O)cc5c4[C@@H](c4cc(O)cc(O)c4[C@H]2c2ccc(O)cc2)[C@H](c2ccc(O)cc2)O5)O[C@H]3c2ccc(O)cc2)cc1 | 4.2 (≈ 4.63 µM) | inactive | 1.2 (≈ 1.32 µM) | 4.8 (≈ 5.29 µM) | 7.8 (≈ 8.6 µM) | > 20 | 41 |  |  |  |  |  |  |  |  | 
3 | CC(=O)Oc1ccc([C@H]2c3c(OC(C)=O)cc(OC(C)=O)cc3[C@H]3c4c(cc(OC(C)=O)cc4[C@@H]2OC(C)=O)O[C@@H]3c2ccc(OC(C)=O)cc2)cc1 | 2 (≈ 2.77 µM) |  | 0.6 (≈ 0.83 µM) |  | 0.7 (≈ 0.969 µM) |  |  | 4.1 (≈ 5.67 µM) | 4 (≈ 5.53 µM) | inactive |  |  |  |  |  | 
4 | CC(=O)Oc1ccc([C@@H]2c3c(OC(C)=O)cc(OC(C)=O)cc3[C@@H]3c4c(OC(C)=O)cc(OC(C)=O)cc4C2[C@H]3c2ccc(OC(C)=O)cc2)cc1 | > 10 |  | 3 (≈ 4.25 µM) |  | 6 (≈ 8.49 µM) |  |  | > 10 | > 10 | inactive | 43 | 36 | 21 |  |  | 
5 | Oc1ccc([C@H]2c3c(O)cc(O)cc3[C@H]3c4c(cc(O)cc4[C@@H]2O)O[C@@H]3c2ccc(O)cc2)cc1 [AMPELOPSIN A] | > 20 |  | > 20 | > 20 | > 20 | > 20 | 8 |  | > 20 |  | 10 |  | 38 | 7 | 32 | 38
6 | CC(=O)Oc1ccc([C@@H]2c3c(OC(C)=O)cc(OC(C)=O)cc3[C@H]3[C@H](c4ccc(OC(C)=O)cc4)c4c(OC(C)=O)cc(OC(C)=O)cc4[C@@H]23)cc1 | 7.4 (≈ 10.5 µM) |  | 1.6 (≈ 2.26 µM) |  | 3.2 (≈ 4.53 µM) |  |  | 8 (≈ 11.3 µM) | 8 (≈ 11.3 µM) | inactive |  |  |  |  |  | 
